Measurements from patent US8324199B2, “Pyridazine derivatives as factor xia inhibitors” (Bristol-Myers Squibb Company, priority 2008, dated 2012).
pKi: −log10 of the molar value.

Each compound was assayed against T1, purified human Factor XIa (Homo sapiens, UniProt P03951) (assay: Factor XIa assay (chromogenic substrate hydrolysis, Ki)). Conditions: purified human Factor XIa 75-200 pM, substrate S-2366, 50 mM HEPES pH 7.4.
T1 construct: purchased Haematologic Technologies
Format: biochemical
Experimental: The effectiveness of compounds of the present invention as inhibitors of the coagulation factors XIa, VIIa, IXa, Xa, XIIa, plasma kallikrein or thrombin, can be determined using a relevant purified serine protease, respectively, and an appropriate synthetic substrate. The rate of hydrolysis of the chromogenic or fluorogenic substrate by the relevant serine protease was measured both in the absence and presence of compounds of the present invention. […] A decrease in the rate of absorbance or fluorescence change in the presence of inhibitor is indicative of enzyme inhibition. Such methods are known to one skilled in the art. The results of this assay are expressed as the inhibitory constant, Ki.
Factor XIa determinations were made in 50 mM HEPES buffer at pH 7.4 containing 145 mM NaCl, 5 mM KCl, and 0.1% PEG 8000 (polyethylene glycol; JT Baker or Fisher Scientific). Determinations were made using purified human Factor XIa at a final concentration of 75-200 pM (Haematologic Technologies) and the synthetic substrate S-2366 (pyroGlu-Pro-Arg-pNA; Chromogenix or AnaSpec) at a concentration of 0.0002-0.001 M.
The Michaelis constant, Km, for substrate hydrolysis by each protease, was determined at 25° C. using the method of Lineweaver and Burk. Values of Ki were determined by allowing the protease to react with the substrate in the presence of the inhibitor. Reactions were allowed to go for periods of 20-180 minutes (depending on the protease) and the velocities (rate of absorbance or fluorescence change versus time) were measured. The following relationships were used to calculate Ki values: (vo−vs)/vs=I/(Ki(1+S/Km)) for a competitive inhibitor with one binding site; or vs/vo=A+((B−A)/1+((IC50/(I)^n))); and Ki=IC50/(1+S/Km) for a competitive inhibitor where: […]

T1 sequence (P03951 388-625 limits assumed): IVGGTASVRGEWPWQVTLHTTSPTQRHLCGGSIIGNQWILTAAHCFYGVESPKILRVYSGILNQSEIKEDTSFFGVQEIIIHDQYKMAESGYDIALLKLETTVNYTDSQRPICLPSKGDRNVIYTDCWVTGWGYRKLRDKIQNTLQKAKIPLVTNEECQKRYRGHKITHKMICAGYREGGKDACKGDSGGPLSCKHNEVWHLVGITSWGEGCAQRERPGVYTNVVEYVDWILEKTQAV
T1 sequence (P03951 19-387 partner limits assumed): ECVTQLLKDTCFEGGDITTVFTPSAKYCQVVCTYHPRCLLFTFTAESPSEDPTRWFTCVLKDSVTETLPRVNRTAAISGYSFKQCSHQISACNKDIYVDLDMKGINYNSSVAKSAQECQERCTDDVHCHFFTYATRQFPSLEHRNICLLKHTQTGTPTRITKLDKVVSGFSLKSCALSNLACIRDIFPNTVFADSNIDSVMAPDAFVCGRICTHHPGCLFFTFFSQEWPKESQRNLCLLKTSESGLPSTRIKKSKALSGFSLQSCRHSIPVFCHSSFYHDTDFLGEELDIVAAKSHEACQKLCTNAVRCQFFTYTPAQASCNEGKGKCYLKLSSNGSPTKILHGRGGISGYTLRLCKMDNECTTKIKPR

Row | pKi | Structure (SMILES)
1 | 5.93 | COC(=O)Nc1ccc(-c2cc(C(Cc3ccccc3)NC(=O)/C=C/c3cc(Cl)ccc3-n3ccnc3)c(Cl)nn2)cc1 (racemic) [Example 8, (±)-(E)-Methyl 4-(6-chloro-5-(1-(3-(5-chloro-2-(1H-imidazol-1-yl)phenyl)acrylamido)-2-phenylethyl)pyridazin-3-yl)phenylcarbamate]
2 | 7.28 | COC(=O)Nc1ccc(-c2cc(C(C)NC(=O)/C=C/c3cc(Cl)ccc3-n3cnnn3)c(Cl)nn2)cc1 (racemic) [Example 11, (±)-(E)-Methyl 4-(6-chloro-5-(1-(3-(5-chloro-2-(1H-tetrazol-1-yl)phenyl)acrylamido)ethyl)pyridazin-3-yl)phenylcarbamate]
3 | 7.70 | Nc1ccc(-c2cc(C(Cc3ccccc3)NC(=O)/C=C/c3cc(Cl)ccc3-n3cnnn3)c(Cl)nn2)cn1 (racemic) [Example 36, (±)-(E)-N-(1-(6-(6-Aminopyridin-3-yl)-3-chloropyridazin-4-yl)-2-phenylethyl)-3-(5-chloro-2-(1H-tetrazol-1-yl)phenyl)acrylamide]
4 | 8.70 | COC(=O)Nc1ccc(-c2cc(C(Cc3ccccc3)NC(=O)/C=C/c3cc(Cl)ccc3-n3cnnn3)c(Cl)nn2)cc1 (single isomer, unassigned) [Example 2, (E)-Methyl 4-(6-chloro-5-(1-(3-(5-chloro-2-(1H-tetrazol-1-yl)phenyl)acrylamido)-2-phenylethyl)pyridazin-3-yl)phenylcarbamate]
5 | 6.20 | COC(=O)Nc1ccc(-c2cc(C(Cc3ccccc3)NC(=O)/C=C/c3cc(Cl)ccc3-n3cnnn3)c(Cl)nn2)cc1 (single isomer, unassigned) [Example 3, (E)-Methyl 4-(6-chloro-5-(1-(3-(5-chloro-2-(1H-tetrazol-1-yl)phenyl)acrylamido)-2-phenylethyl)pyridazin-3-yl)phenylcarbamate]
6 | 8.54 | COC(=O)Nc1ccc(-c2cc(C(CC(=O)OC(C)(C)C)NC(=O)/C=C/c3cc(Cl)ccc3-n3cnnn3)c(Cl)nn2)cc1 (single isomer, unassigned) [Example 20, (E)-tert-Butyl 3-(3-(5-chloro-2-(1H-tetrazol-1-yl)phenyl)acrylamido)-3-(3-chloro-6-(4-(methoxycarbonylamino)phenyl)pyridazin-4-yl)propanoate]
7 | 8.40 | COC(=O)Nc1ccc(-c2cc(C(CC(=O)N3CCN(C)CC3)NC(=O)/C=C/c3cc(Cl)ccc3-n3cnnn3)c(Cl)nn2)cc1 (single isomer, unassigned) [Example 27, (E)-Methyl 4-(6-chloro-5-(1-(3-(5-chloro-2-(1H-tetrazol-1-yl)phenyl)acrylamido)-3-(4-methylpiperazin-1-yl)-3-oxopropyl)pyridazin-3-yl)phenylcarbamate]
8 | 6.13 | COC(=O)Nc1ccc(-c2cc([C@H](CC3CCCNC3)NC(=O)/C=C/c3cc(Cl)ccc3-n3cnnn3)nnc2Cl)cc1 (single isomer, unassigned) [Example 99]
9 | 7.26 | COC(=O)Nc1ccc(-c2cc([C@H](CC3CCCN(C(=O)C(C)C)C3)NC(=O)/C=C/c3cc(Cl)ccc3-n3cnnn3)nnc2Cl)cc1 (single isomer, unassigned) [Example 118]
10 | 6.81 | COC(=O)Nc1ccc(-c2cc([C@H](Cc3ccccc3)NC(=O)/C=C/c3cc(Cl)ccc3-n3cnnn3)nn(C)c2=O)cc1 [Example 40, (S,E)-Methyl 4-(6-(1-(3-(5-chloro-2-(1H-tetrazol-1-yl)phenyl)acrylamido)-2-phenylethyl)-2-methyl-3-oxo-2,3-dihydropyridazin-4-yl)phenylcarbamate]
11 | 6.39 | CCOC(=O)Nc1ccc(-c2cc([C@H](Cc3ccccc3)NC(=O)/C=C/c3cc(Cl)ccc3-n3cnnn3)nnc2OCC)cc1 [Example 51, (S,E)-Ethyl 4-(6-(1-(3-(5-chloro-2-(1H-tetrazol-1-yl)phenyl)acrylamido)-2-phenylethyl)-3-ethoxypyridazin-4-yl)phenylcarbamate]
